According to US8138168B1 (Takeda Pharmaceutical Company Limited, priority 2007, dated 2012):

Each compound was assayed against T1, Recombinant human renin (Homo sapiens, UniProt P00797) (assay: In vitro enzymatic activity assay of renin inhibitors (fluorogenic peptide substrate)). Details: read-out: IC50 of Exemplified Compounds Against Renin.
T1 construct: isolate the active form (residues 67-406); made in house; host or cells: FreeStyle 293-F cells (transient expression of pcDNA3.1(+)/hREN)
T1 sequence (P00797 67-406): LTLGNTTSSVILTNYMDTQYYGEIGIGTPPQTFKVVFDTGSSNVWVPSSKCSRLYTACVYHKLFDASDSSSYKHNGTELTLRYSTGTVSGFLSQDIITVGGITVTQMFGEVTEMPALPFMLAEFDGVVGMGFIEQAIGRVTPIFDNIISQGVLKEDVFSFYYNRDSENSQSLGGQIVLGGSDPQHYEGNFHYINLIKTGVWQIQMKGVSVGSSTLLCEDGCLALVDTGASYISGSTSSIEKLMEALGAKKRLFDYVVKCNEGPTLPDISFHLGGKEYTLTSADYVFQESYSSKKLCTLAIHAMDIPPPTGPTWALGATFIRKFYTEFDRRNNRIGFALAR
Format: biochemical
Summary of the method: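 Recombinant human renin (3 nM final) pre-incubated 10 min at 37 °C with compounds in pH 7.4 Hepes/EDTA/DTT/0.1 mg/mL BSA/Brij35 buffer (optionally plus 2% BSA), 5% DMSO final; fluorogenic QXL520/HiLyteFluo488 peptide substrate added.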

IC50, 0.1 to 1 µM:
COCCCn1c([C@@H]2CCCN(C(=O)C[C@H](N)CNC(=O)Nc3cccc(Oc4ccccc4)c3)C2)nc2ccccc21 [Compound 288, 1-((S)-2-amino-4-((R)-3-(1-(3-methoxypropyl)-1H-benzo[d]imidazol-2-yl)piperidin-1-yl)-4-oxobutyl)-3-(3-phenoxyphenyl)urea]
COCCCn1c([C@@H]2CCCN(C(=O)C[C@H](N)CNC(=O)c3c(Cl)cccc3Cl)C2)nc2ccccc21 [Compound 289, N-((S)-2-amino-4-((R)-3-(1-(3-methoxypropyl)-1H-benzo[d]imidazol-2-yl)piperidin-1-yl)-4-oxobutyl)-2,6-dichlorobenzamide]
COCCCn1c([C@@H]2CCCN(C(=O)C[C@H](N)CNS(=O)(=O)c3c(Cl)cccc3Cl)C2)nc2ccccc21 [Compound 290, N-((S)-2-amino-4-((R)-3-(1-(3-methoxypropyl)-1H-benzo[d]imidazol-2-yl)piperidin-1-yl)-4-oxobutyl)-2,6-dichlorobenzenesulfonamide]
COCCCn1c([C@@H]2CCCN(C(=O)C[C@H](N)CNC(=O)Nc3ccccc3-c3ccccc3)C2)nc2ccccc21 [Compound 291, 1-((S)-2-amino-4-((R)-3-(1-(3-methoxypropyl)-1H-benzo[d]imidazol-2-yl)piperidin-1-yl)-4-oxobutyl)-3-(biphenyl-2-yl)urea]
COCCCn1c([C@@H]2CCCN(C(=O)C[C@H](N)CNC(=O)Nc3ccc(OC)cc3C)C2)nc2ccccc21 [Compound 292, 1-((S)-2-amino-4-((R)-3-(1-(3-methoxypropyl)-1H-benzo[d]imidazol-2-yl)piperidin-1-yl)-4-oxobutyl)-3-(4-methoxy-2-methylphenyl)urea]
COCCCn1c([C@@H]2CCCN(C(=O)C[C@H](N)CNC(=O)c3ccc(C)c(C)c3)C2)nc2ccccc21 [Compound 293, N-((S)-2-amino-4-((R)-3-(1-(3-methoxypropyl)-1H-benzo[d]imidazol-2-yl)piperidin-1-yl)-4-oxobutyl)-3,4-dimethylbenzamide]
CCOC(=O)c1ccc(-c2ccc(C(=O)NC[C@@H](N)CC(=O)N3CCC[C@@H](c4nc5ccccc5n4CCCOC)C3)o2)cc1 [Compound 294, ethyl 4-(5-((S)-2-amino-4-((R)-3-(1-(3-methoxypropyl)-1H-benzo[d]imidazol-2-yl)piperidin-1-yl)-4-oxobutylcarbamoyl)furan-2-yl)benzoate]
COCCCn1c([C@@H]2CCCN(C(=O)C[C@H](N)CNC(=O)c3ccc(-c4cc(Cl)cc(Cl)c4)o3)C2)nc2ccccc21 [Compound 295, N-((S)-2-amino-4-((R)-3-(1-(3-methoxypropyl)-1H-benzo[d]imidazol-2-yl)piperidin-1-yl)-4-oxobutyl)-5-(3,5-dichlorophenyl)furan-2-carboxamide]
COCCCn1c([C@@H]2CCCN(C(=O)C[C@H](N)CNC(=O)c3ccc(-c4cccc(Cl)c4)o3)C2)nc2ccccc21 [Compound 296, N-((S)-2-amino-4-((R)-3-(1-(3-methoxypropyl)-1H-benzo[d]imidazol-2-yl)piperidin-1-yl)-4-oxobutyl)-5-(3-chlorophenyl)furan-2-carboxamide]
COCCCn1c([C@@H]2CCCN(C(=O)C[C@H](N)CNC(=O)c3ccc(-c4cccc([N+](=O)[O-])c4)o3)C2)nc2ccccc21 [Compound 297, N-((S)-2-amino-4-((R)-3-(1-(3-methoxypropyl)-1H-benzo[d]imidazol-2-yl)piperidin-1-yl)-4-oxobutyl)-5-(3-nitrophenyl)furan-2-carboxamide]
COCCCn1c([C@@H]2CCCN(C(=O)C[C@H](N)CNC(=O)c3cccc(Cl)c3)C2)nc2ccccc21 [Compound 298, N-((S)-2-amino-4-((R)-3-(1-(3-methoxypropyl)-1H-benzo[d]imidazol-2-yl)piperidin-1-yl)-4-oxobutyl)-3-chlorobenzamide]
COCCCn1c([C@@H]2CCCN(C(=O)C[C@H](N)CNC(=O)c3cccnc3Oc3ccccc3)C2)nc2ccccc21 [Compound 299, N-((S)-2-amino-4-((R)-3-(1-(3-methoxypropyl)-1H-benzo[d]imidazol-2-yl)piperidin-1-yl)-4-oxobutyl)-2-phenoxynicotinamide]
COCCCn1c([C@@H]2CCCN(C(=O)C[C@H](N)CNS(=O)(=O)c3cccc(Cl)c3)C2)nc2ccccc21 [Compound 300, N-((S)-2-amino-4-((R)-3-(1-(3-methoxypropyl)-1H-benzo[d]imidazol-2-yl)piperidin-1-yl)-4-oxobutyl)-3-chlorobenzenesulfonamide]
COCCCn1c([C@@H]2CCCN(C(=O)C[C@H](N)CNC(=O)Nc3ccccc3C(C)C)C2)nc2ccccc21 [Compound 301, 1-((S)-2-amino-4-((R)-3-(1-(3-methoxypropyl)-1H-benzo[d]imidazol-2-yl)piperidin-1-yl)-4-oxobutyl)-3-(2-isopropylphenyl)urea]
COCCCn1c([C@@H]2CCCN(C(=O)C[C@H](N)CNC(=O)Nc3ccccc3C(C)(C)C)C2)nc2ccccc21 [Compound 302, 1-((S)-2-amino-4-((R)-3-(1-(3-methoxypropyl)-1H-benzo[d]imidazol-2-yl)piperidin-1-yl)-4-oxobutyl)-3-(2-tert-butylphenyl)urea]
COCCCn1c([C@@H]2CCCN(C(=O)C[C@H](N)CNC(=O)c3cccc(-c4noc(C)n4)c3)C2)nc2ccccc21 [Compound 303, N-((S)-2-amino-4-((R)-3-(1-(3-methoxypropyl)-1H-benzo[d]imidazol-2-yl)piperidin-1-yl)-4-oxobuty)-3-(5-methyl-1,2,4-oxadiazol-3-yl)benzamide]
COCCCn1c([C@@H]2CCCN(C(=O)C[C@H](N)CNC(=O)c3ccc(-c4ccc(F)cc4)o3)C2)nc2ccccc21 [Compound 304, N-((S)-2-amino-4-((R)-3-(1-(3-methoxypropyl)-1H-benzo[d]imidazol-2-yl)piperidin-1-yl)-4-oxobutyl)-5-(4-fluorophenyl)furan-2-carboxamide]
COCCCn1c([C@@H]2CCCN(C(=O)C[C@H](N)CNS(=O)(=O)c3ccc(Cl)c(Cl)c3)C2)nc2ccccc21 [Compound 305, N-((S)-2-amino-4-((R)-3-(1-(3-methoxypropyl)-1H-benzo[d]imidazol-2-yl)piperidin-1-yl)-4-oxobutyl)-3,4-dichlorobenzenesulfonamide]
COCCCn1c([C@@H]2CCCN(C(=O)C[C@H](N)CNS(=O)(=O)c3ccccc3Cl)C2)nc2ccccc21 [Compound 306, N-((S)-2-amino-4-((R)-3-(1-(3-methoxypropyl)-1H-benzo[d]imidazol-2-yl)piperidin-1-yl)-4-oxobutyl)-2-chlorobenzenesulfonamide]
CCCSc1ncccc1C(=O)NC[C@@H](N)CC(=O)N1CCC[C@@H](c2nc3ccccc3n2CCCOC)C1 [Compound 307, N-((S)-2-amino-4-((R)-3-(1-(3-methoxypropyl)-1H-benzo[d]imidazol-2-yl)piperidin-1-yl)-4-oxobutyl)-2-(propylthio)nicotinamide]
COCCCn1c([C@@H]2CCCN(C(=O)C[C@H](N)CNC(=O)c3ccc4c(c3)OCCO4)C2)nc2ccccc21 [Compound 308, N-((S)-2-amino-4-((R)-3-(1-(3-methoxypropyl)-1H-benzo[d]imidazol-2-yl)piperidin-1-yl)-4-oxobutyl)-2,3-dihydrobenzo[b][1,4]dioxine-6-carboxamide]
COCCCn1c([C@@H]2CCCN(C(=O)C[C@H](N)CNC(=O)c3ccc(Cl)cc3)C2)nc2ccccc21 [Compound 309, N-((S)-2-amino-4-((R)-3-(1-(3-methoxypropyl)-1H-benzo[d]imidazol-2-yl)piperidin-1-yl)-4-oxobutyl)-4-chlorobenzamide]
COCCCn1c([C@@H]2CCCN(C(=O)C[C@H](N)CNC(=O)c3cccc(OC)c3)C2)nc2ccccc21 [Compound 310, N-((S)-2-amino-4-((R)-3-(1-(3-methoxypropyl)-1H-benzo[d]imidazol-2-yl)piperidin-1-yl)-4-oxobutyl)-3-methoxybenzamide]
COCCCn1c([C@@H]2CCCN(C(=O)C[C@H](N)CNC(=O)c3cccc4ccccc34)C2)nc2ccccc21 [Compound 311, N-((S)-2-amino-4-((R)-3-(1-(3-methoxypropyl)-1H-benzo[d]imidazol-2-yl)piperidin-1-yl)-4-oxobutyl)-1-naphthamide]
COCCCn1c([C@@H]2CCCN(C(=O)C[C@H](N)CNS(=O)(=O)C(C)C)C2)nc2ccccc21 [Compound 312, N-((S)-2-amino-4-((R)-3-(1-(3-methoxypropyl)-1H-benzo[d]imidazol-2-yl)piperidin-1-yl)-4-oxobutyl)propane-2-sulfonamide]
COCCCn1c([C@@H]2CCCN(C(=O)C[C@H](N)CNC(=O)c3cccc(N4CCCCC4)n3)C2)nc2ccccc21 [Compound 313, N-((S)-2-amino-4-((R)-3-(1-(3-methoxypropyl)-1H-benzo[d]imidazol-2-yl)piperidin-1-yl)-4-oxobutyl)-6-(piperidin-1-yl)picolinamide]
